Assay results reported in PubChem BioAssay (NCI).
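Five concentrations, 48 hours, 96-well plates. At the TGI there is no net growth.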

What was measured:
Assay in all cases: NCI tumour cell line growth inhibition, 48 h
[1] = tested on: NCI-H226 lung
[2] = tested on: HOP-18 NSCLC
[3] = tested on: SR leukemia
[4] = tested on: K-562 leukemia
[5] = tested on: UACC-62 melanoma
[6] = tested on: SNB-75 CNS
[7] = tested on: XF 498 CNS
[8] = tested on: COLO 205 colon
[9] = tested on: LOX IMVI melanoma
[10] = tested on: U251 CNS
[11] = tested on: SNB-78 CNS
[12] = tested on: CAKI-1 renal
[13] = tested on: NCI-H460 lung
[14] = tested on: 786-0 renal
[15] = tested on: M14 melanoma
[16] = tested on: SF-268 CNS
[17] = tested on: KM12 colon
[18] = tested on: MALME-3M melanoma
[19] = tested on: OVCAR-3 ovarian
[20] = tested on: HT29 colon
[21] = tested on: TK-10 renal
[22] = tested on: ACHN renal
[23] = tested on: RXF 393 renal
[24] = tested on: SK-OV-3 ovarian
[25] = tested on: KM20L2 colon
[26] = tested on: NCI-H522 lung
[27] = tested on: OVCAR-4 ovarian
[28] = tested on: SNB-19 CNS
[29] = tested on: HCT-116 colon
[30] = tested on: IGROV1 ovarian
[31] = tested on: HOP-92 NSCLC
[32] = tested on: MOLT-4 leukemia
[33] = tested on: A549 NSCLC
[34] = tested on: OVCAR-5 ovarian
[35] = tested on: SW-620 colon
[36] = tested on: SN12C renal
[37] = tested on: UO-31 renal
[38] = tested on: CCRF-CEM leukemia
[39] = tested on: LXFL 529 NSCLC
[40] = tested on: SF-295 CNS
[41] = tested on: HOP-62 NSCLC
[42] = tested on: HL-60(TB) leukemia
[43] = tested on: SK-MEL-2 melanoma
[44] = tested on: SK-MEL-28 melanoma
[45] = tested on: OVCAR-8 ovarian
[46] = tested on: EKVX NSCLC
[47] = tested on: HCC-2998 colon
[48] = tested on: DMS 114 small cell lung
[49] = tested on: UACC-257 melanoma
[50] = tested on: HCT-15 colon
[51] = tested on: RXF-631 renal
[52] = tested on: DLD-1 colon
[53] = tested on: M19-MEL melanoma
[54] = tested on: SF-539 CNS
[55] = tested on: NCI-H23 lung

COc1cc(/C=C/C(=N\NC(=O)c2ccccc2)c2sc(Nc3ccc(Cl)c(Cl)c3)nc2C)ccc1O
TGI [1]: 56 µM | TGI [2]: 79.3 µM | TGI [3]: 62.3 µM | TGI [4]: 95.9 µM | TGI [5]: 26.1 µM | TGI [6]: > 100 µM | TGI [7]: 91.3 µM | TGI [8]: > 100 µM | TGI [9]: 44.9 µM | TGI [10]: 88.9 µM | TGI [11]: 93.2 µM | TGI [12]: > 100 µM | TGI [13]: > 100 µM | TGI [14]: > 100 µM | TGI [15]: 93.4 µM | TGI [16]: > 100 µM | TGI [17]: > 100 µM | TGI [18]: 70.6 µM | TGI [19]: 76.6 µM | TGI [20]: > 100 µM | TGI [21]: > 100 µM | TGI [22]: 87.2 µM | TGI [23]: > 100 µM | TGI [24]: > 100 µM | TGI [25]: > 100 µM | TGI [26]: 47.6 µM | TGI [27]: > 100 µM | TGI [28]: > 100 µM | TGI [29]: > 100 µM | TGI [30]: > 100 µM | TGI [31]: 16.3 µM | TGI [32]: 66.6 µM | TGI [33]: > 100 µM | TGI [34]: 81.1 µM | TGI [35]: > 100 µM | TGI [36]: > 100 µM | TGI [37]: 77.7 µM | TGI [38]: > 100 µM | TGI [39]: > 100 µM | TGI [40]: > 100 µM | TGI [41]: > 100 µM | TGI [42]: 40 µM | TGI [43]: 64.3 µM | TGI [44]: > 100 µM | TGI [45]: > 100 µM | TGI [46]: > 100 µM | TGI [47]: 91.8 µM | TGI [48]: 71.5 µM | TGI [49]: > 100 µM | TGI [50]: > 100 µM | TGI [51]: 72.5 µM | TGI [52]: > 100 µM | TGI [53]: > 100 µM | TGI [54]: > 100 µM | TGI [55]: 77.3 µM
